Calls of active or inactive are those of the source. The rule behind the calls is not given here.
Columns and labels:
Rattus norvegicus [1] = assay: Toxicity in glucocorticoid-induced Wistar rat osteoporosis model assessed as effect on red blood cell specific volume at 30 mg/kg/day, po administered six times a week for 3 months; assay type: organism-based; set-up: route oral; details: in vivo
Rattus norvegicus [2] = assay: Toxicity in glucocorticoid-induced Wistar rat osteoporosis model assessed as effect on total protein level at 30 mg/kg/day, po administered six times a week for 3 months; assay type: organism-based; set-up: route oral; details: in vivo
Rattus norvegicus [3] = assay: Toxicity in glucocorticoid-induced Wistar rat osteoporosis model assessed as effect on mean corpuscular hemoglobin concentration at 30 mg/kg/day, po administered six times a week for 3 months; assay type: organism-based; set-up: route oral; details: in vivo
Rattus norvegicus [4] = assay: Toxicity in glucocorticoid-induced Wistar rat osteoporosis model assessed as aspartate transaminase level at 30 mg/kg/day, po administered six times a week for 3 months (reference value: 177.55 +/- 116.98 U/L); assay type: organism-based; set-up: route oral; details: in vivo
Rattus norvegicus [5] = assay: Toxicity in glucocorticoid-induced Wistar rat osteoporosis model assessed as alanine transaminase level at 30 mg/kg/day, po administered six times a week for 3 months (reference value: 43.73 +/- 36.21 U/L); assay type: organism-based; set-up: route oral; details: in vivo
Rattus norvegicus [6] = assay: Toxicity in glucocorticoid-induced Wistar rat osteoporosis model assessed as neutrophilic granulocytes level at 30 mg/kg/day, po administered six times a week for 3 months (reference value: 31.95 +/- 8.33%); assay type: organism-based; set-up: route oral; details: in vivo
Rattus norvegicus [7] = assay: Toxicity in glucocorticoid-induced Wistar rat osteoporosis model assessed as effect on glucose level at 30 mg/kg/day, po administered six times a week for 3 months; assay type: organism-based; set-up: route oral; details: in vivo
Rattus norvegicus [8] = assay: Toxicity in glucocorticoid-induced Wistar rat osteoporosis model assessed as effect on mean corpuscular volume at 30 mg/kg/day, po administered six times a week for 3 months; assay type: organism-based; set-up: route oral; details: in vivo
Rattus norvegicus [9] = assay: Toxicity in glucocorticoid-induced Wistar rat osteoporosis model assessed as lymph level at 30 mg/kg/day, po administered six times a week for 3 months (reference value: 50.35 +/- 12.96%); assay type: organism-based; set-up: route oral; details: in vivo
[10] = Upregulation of BMP-2 expression in mouse MC3T3-E1 cells at 4 uM after 24 hrs by luciferase reporter gene assay relative to control; assay type: functional, cell-based
Rattus norvegicus [11] = assay: Toxicity in glucocorticoid-induced Wistar rat osteoporosis model assessed as effect on total bilirubin level at 30 mg/kg/day, po administered six times a week for 3 months; assay type: organism-based; set-up: route oral; details: in vivo
Rattus norvegicus [12] = assay: Toxicity in glucocorticoid-induced Wistar rat osteoporosis model assessed as effect on red blood cell distribution width at 30 mg/kg/day, po administered six times a week for 3 months; assay type: organism-based; set-up: route oral; details: in vivo
Rattus norvegicus [13] = assay: Toxicity in glucocorticoid-induced Wistar rat osteoporosis model assessed as effect on hemoglobin at 30 mg/kg/day, po administered six times a week for 3 months; assay type: organism-based; set-up: route oral; details: in vivo
Rattus norvegicus [14] = assay: Antiosteoporotic activity in glucocorticoid-induced Wistar rat osteoporosis model assessed as trabecular bone volume at 30 mg/kg/day, po administered six times a week for 3 months by fluorescence assay (reference value: 33.09 +/- 5.15%); assay type: functional, Trabecula
Rattus norvegicus [15] = assay: Toxicity in glucocorticoid-induced Wistar rat osteoporosis model assessed as white blood cells at 30 mg/kg/day, po administered six times a week for 3 months (reference value: 6.28 +/- 2.78 x 10^9/L); assay type: organism-based; set-up: route oral; details: in vivo
Rattus norvegicus [16] = assay: Antiosteoporotic activity in glucocorticoid-induced Wistar rat osteoporosis model assessed as trabecula formation surface at 30 mg/kg/day, po administered six times a week for 3 months by fluorescence assay (reference value: 7.82 +/- 2.46%); assay type: functional
Rattus norvegicus [17] = assay: Toxicity in glucocorticoid-induced Wistar rat osteoporosis model assessed as effect on blood urea nitrogen level at 30 mg/kg/day, po administered six times a week for 3 months; assay type: organism-based; set-up: route oral; details: in vivo
Rattus norvegicus [18] = assay: Antiosteoporotic activity in glucocorticoid-induced Wistar rat osteoporosis model assessed as mineral apposition rate at 30 mg/kg/day, po administered six times a week for 3 months by fluorescence assay (reference value: 1.06 +/- 0.27 micrometer/day); assay type: functional
Rattus norvegicus [19] = assay: Toxicity in glucocorticoid-induced Wistar rat osteoporosis model assessed as effect on red blood cells at 30 mg/kg/day, po administered six times a week for 3 months; assay type: organism-based; set-up: route oral; details: in vivo
Rattus norvegicus [20] = assay: Toxicity in glucocorticoid-induced Wistar rat osteoporosis model assessed as triglycerides level at 30 mg/kg/day, po administered six times a week for 3 months (reference value: 1.13 +/- 0.69 mmol/L); assay type: organism-based; set-up: route oral; details: in vivo
Rattus norvegicus [21] = assay: Toxicity in glucocorticoid-induced Wistar rat osteoporosis model assessed as effect on albumin level at 30 mg/kg/day, po administered six times a week for 3 months; assay type: organism-based; set-up: route oral; details: in vivo
Rattus norvegicus [22] = assay: Antiosteoporotic activity in glucocorticoid-induced Wistar rat osteoporosis model appearance of turbulent and sparse rarefection of trabecula at 30 mg/kg/day, po administered six times a week for 3 months by toluidine blue staining-based light microscopic analysis; assay type: functional, organism-based
Rattus norvegicus [23] = assay: Toxicity in glucocorticoid-induced Wistar rat osteoporosis model assessed as effect on platelets at 30 mg/kg/day, po administered six times a week for 3 months; assay type: organism-based; set-up: route oral; details: in vivo
Rattus norvegicus [24] = assay: Toxicity in glucocorticoid-induced Wistar rat osteoporosis model assessed as effect on creatinine level at 30 mg/kg/day, po administered six times a week for 3 months; assay type: organism-based; set-up: route oral; details: in vivo
Rattus norvegicus [25] = assay: Antiosteoporotic activity in glucocorticoid-induced Wistar rat osteoporosis model assessed as trabecula resorption surface at 30 mg/kg/day, po administered six times a week for 3 months by fluorescence assay (reference value: 7.22 +/- 2.04%); assay type: functional
Rattus norvegicus [26] = assay: Toxicity in glucocorticoid-induced Wistar rat osteoporosis model assessed as white blood cells at 2.5 mg/kg/day, im administered twice each week for 8 weeks (reference value: 6.28 +/- 2.78 x 10^9/L); assay type: organism-based; set-up: route intramuscular; details: in vivo, 1344 h
Rattus norvegicus [27] = assay: Toxicity in glucocorticoid-induced Wistar rat osteoporosis model assessed as triglycerides level at 2.5 mg/kg/day, im administered twice each week for 8 weeks (reference value: 1.13 +/- 0.69 mmol/L); assay type: organism-based; set-up: route intramuscular; details: in vivo, 1344 h
Rattus norvegicus [28] = assay: Antiosteoporotic activity in glucocorticoid-induced Wistar rat osteoporosis model assessed as mineral apposition rate at 2.5 mg/kg/day, im administered twice each week for 8 weeks by fluorescence assay (reference value: 1.06 +/- 0.27 micrometer/day); assay type: functional; details: route intramuscular
Rattus norvegicus [29] = assay: Toxicity in glucocorticoid-induced Wistar rat osteoporosis model assessed as neutrophilic granulocytes level at 2.5 mg/kg/day, im administered twice each week for 8 weeks (reference value: 31.95 +/- 8.33%); assay type: organism-based; set-up: route intramuscular; details: in vivo, 1344 h
Rattus norvegicus [30] = assay: Antiosteoporotic activity in glucocorticoid-induced Wistar rat osteoporosis model assessed as appearance of turbulent and sparse rarefection of trabecula at 2.5 mg/kg/day, im administered twice each week for 8 weeks by toluidine blue staining-based light microscopic analysis; assay type: functional, organism-based
Rattus norvegicus [31] = assay: Antiosteoporotic activity in glucocorticoid-induced Wistar rat osteoporosis model assessed as trabecular bone volume at 2.5 mg/kg/day, im administered twice each week for 8 weeks by fluorescence assay (reference value: 33.09 +/- 5.15%); assay type: functional, Trabecula; details: route intramuscular
Rattus norvegicus [32] = assay: Toxicity in glucocorticoid-induced Wistar rat osteoporosis model assessed as alanine transaminase level at 2.5 mg/kg/day, im administered twice each week for 8 weeks (reference value: 43.73 +/- 36.21 U/L); assay type: organism-based; set-up: route intramuscular; details: in vivo, 1344 h
Rattus norvegicus [33] = assay: Antiosteoporotic activity in glucocorticoid-induced Wistar rat osteoporosis model assessed as trabecula resorption surface at 2.5 mg/kg/day, im administered twice each week for 8 weeks by fluorescence assay (reference value: 7.22 +/- 2.04%); assay type: functional; details: route intramuscular
Rattus norvegicus [34] = assay: Toxicity in glucocorticoid-induced Wistar rat osteoporosis model assessed as aspartate transaminase level at 2.5 mg/kg/day, im administered twice each week for 8 weeks (reference value: 177.55 +/- 116.98 U/L); assay type: organism-based; set-up: route intramuscular; details: in vivo, 1344 h
Rattus norvegicus [35] = assay: Antiosteoporotic activity in glucocorticoid-induced Wistar rat osteoporosis model assessed as trabecula formation surface at 2.5 mg/kg/day, im administered twice each week for 8 weeks by fluorescence assay (reference value: 7.82 +/- 2.46%); assay type: functional; details: route intramuscular
Rattus norvegicus [36] = assay: Toxicity in glucocorticoid-induced Wistar rat osteoporosis model assessed as lymph level at 2.5 mg/kg/day, im administered twice each week for 8 weeks (reference value: 50.35 +/- 12.96%); assay type: organism-based; set-up: route intramuscular; details: in vivo, 1344 h

SMILES: CC(=O)c1cc2ccc(C(=O)O)cc2s1
- Activity (Rattus norvegicus [1]): Non-toxic
- Activity (Rattus norvegicus [2]): Non-toxic
- Activity (Rattus norvegicus [3]): Non-toxic
- Activity (Rattus norvegicus [4]): 123.33 U/L
- Activity (Rattus norvegicus [5]): 31.17 U/L
- Activity (Rattus norvegicus [6]): 47.16%
- Activity (Rattus norvegicus [7]): Non-toxic
- Activity (Rattus norvegicus [8]): Non-toxic
- Activity (Rattus norvegicus [9]): 35.72%
- Activity [10]: 102%
- Activity (Rattus norvegicus [11]): Non-toxic
- Activity (Rattus norvegicus [12]): Non-toxic
- Activity (Rattus norvegicus [13]): Non-toxic
- Activity (Rattus norvegicus [14]): 20.5%
- Activity (Rattus norvegicus [15]): 3.55 ×10⁹ /L
- Activity (Rattus norvegicus [16]): 4.61%
- Activity (Rattus norvegicus [17]): Non-toxic
- Activity (Rattus norvegicus [18]): 0.97 micrometer/day
- Activity (Rattus norvegicus [19]): Non-toxic
- Activity (Rattus norvegicus [20]): 0.53 mmol/L
- Activity (Rattus norvegicus [21]): Non-toxic
- Activity (Rattus norvegicus [22]): inactive
- Activity (Rattus norvegicus [23]): Non-toxic
- Activity (Rattus norvegicus [24]): Non-toxic
- Activity (Rattus norvegicus [25]): 10.9%

SMILES: C[C@@H]1C[C@H]2[C@@H]3CCC4=CC(=O)C=C[C@]4(C)[C@@]3(F)[C@@H](O)C[C@]2(C)[C@@]1(O)C(=O)CO [DEXAMETHASONE]
- Activity (Rattus norvegicus [26]): 6.58 ×10⁹ /L
- Activity (Rattus norvegicus [27]): 1.63 mmol/L
- Activity (Rattus norvegicus [28]): 0.76 micrometer/day
- Activity (Rattus norvegicus [29]): 53.03%
- Activity (Rattus norvegicus [30]): inactive
- Activity (Rattus norvegicus [31]): 18.46%
- Activity (Rattus norvegicus [32]): 63.64 U/L
- Activity (Rattus norvegicus [33]): 11.8%
- Activity (Rattus norvegicus [34]): 213 U/L
- Activity (Rattus norvegicus [35]): 4.49%
- Activity (Rattus norvegicus [36]): 25.77%

From ChEMBL document CHEMBL3414511, “Synthesis of a novel class of substituted benzothiophene or benzofuran derivatives as BMP-2 up-regulators and evaluation of the BMP-2-up-regulating effects in vitro and the effects on glucocorticoid-induced osteoporosis in rats” (Eur J Med Chem, 2015)
